The source made the active and inactive calls.
Legend:
[1] = Trypanosoma cruzi growth suppression in host cells – NIH3T3 host cells, beta-gal luminescence, confirmation (AID 2044); type: functional, cell-based;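 note: intracellular parasites grown in NIH/3T3 mouse fibroblasts as host cells; luminescent beta-galactosidase reporter signal from transgenic T. cruzi replicating inside host cells; inhibitors lower the luminescence signal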
[2] = NIH3T3 cell viability loss – ATP luminescence, mouse fibroblasts, counter-screen, dose response (AID 2010); type: functional, cell-based;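 note: cells exposed to compound for about 90 hours before reading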
[3] = viability of uninfected HEp-2 cells – cell-based, HTS, cytotoxicity control for RSV inhibitor project, dose response (AID 2410); type: functional; conditions: human respiratory syncytial virus
[4] = molecular target: Cytochrome P450 2C9 (Homo sapiens, UniProt P11712)
[5] = molecular target: Cytochrome P450 2C19 (Homo sapiens, UniProt P33261); assay: Cytochrome panel assay with activity outcomes. Panel member name: p450-cyp2c19 Compounds with AC50 equal or less than 10 uM are considered active; type: functional
[6] = system: Streptococcus sp. 'group A'; assay: Streptococcus pyogenes SK(-)GAS viability under kanamycin – luminescence, BacTiterGlo, confirmation, counter-screen for streptokinase expression inhibitor project, dose response (AID 1900); type: functional, organism-based
[7] = system: Streptococcus; assay: GAS UMAA2166 growth inhibition – luminescence, BacTiterGlo, counter-screen for streptokinase expression inhibitor project, dose response (AID 1915); type: functional, organism-based;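 note: potency for reduction of bacterial viability or growth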
[8] = molecular target: Cytochrome P450 3A4 (Homo sapiens, UniProt P08684);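 note: CYP3A4 tested as one member of a cytochrome P450 panel screen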
[9] = molecular target: T1, Rac GTPase-activating protein 1 (Homo sapiens, UniProt Q9H0H5); assay: blockers of MgcRacGAP-driven Rac1 GTP hydrolysis – biochemical, ADP Hunter fluorescence, primary and confirmatory, confirmation (AID 624330); type: functional
T1 sequence (Q9H0H5 whole entry): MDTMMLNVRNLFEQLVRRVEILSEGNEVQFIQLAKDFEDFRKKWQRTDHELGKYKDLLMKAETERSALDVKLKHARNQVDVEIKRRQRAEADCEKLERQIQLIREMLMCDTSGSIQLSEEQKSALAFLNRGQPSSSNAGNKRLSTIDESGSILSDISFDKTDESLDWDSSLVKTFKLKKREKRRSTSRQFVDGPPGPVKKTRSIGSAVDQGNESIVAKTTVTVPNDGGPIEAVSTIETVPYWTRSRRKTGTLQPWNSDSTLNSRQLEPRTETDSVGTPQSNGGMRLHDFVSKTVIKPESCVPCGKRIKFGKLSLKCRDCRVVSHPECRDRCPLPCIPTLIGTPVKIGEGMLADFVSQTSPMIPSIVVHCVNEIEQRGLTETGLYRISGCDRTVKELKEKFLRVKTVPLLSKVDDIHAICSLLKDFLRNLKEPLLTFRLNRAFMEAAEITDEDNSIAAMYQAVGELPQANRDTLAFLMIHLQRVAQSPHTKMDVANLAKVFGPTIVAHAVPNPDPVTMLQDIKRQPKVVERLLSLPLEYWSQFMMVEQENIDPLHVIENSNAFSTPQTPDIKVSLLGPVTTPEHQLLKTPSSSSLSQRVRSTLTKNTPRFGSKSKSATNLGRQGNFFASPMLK

[10] = molecular target: T2, Protein RecA (Mycobacterium tuberculosis, UniProt P9WHJ3); assay: Fluorescence Cell-Free Homogeneous Dose Retest to Identify Inhibitors of RecA-Intein Splicing Activity. [Related pubchem assays (depositor defined):AID2097, AID2223, AID489010, AID492950]; type: functional
T2 sequence (P9WHJ3 whole entry): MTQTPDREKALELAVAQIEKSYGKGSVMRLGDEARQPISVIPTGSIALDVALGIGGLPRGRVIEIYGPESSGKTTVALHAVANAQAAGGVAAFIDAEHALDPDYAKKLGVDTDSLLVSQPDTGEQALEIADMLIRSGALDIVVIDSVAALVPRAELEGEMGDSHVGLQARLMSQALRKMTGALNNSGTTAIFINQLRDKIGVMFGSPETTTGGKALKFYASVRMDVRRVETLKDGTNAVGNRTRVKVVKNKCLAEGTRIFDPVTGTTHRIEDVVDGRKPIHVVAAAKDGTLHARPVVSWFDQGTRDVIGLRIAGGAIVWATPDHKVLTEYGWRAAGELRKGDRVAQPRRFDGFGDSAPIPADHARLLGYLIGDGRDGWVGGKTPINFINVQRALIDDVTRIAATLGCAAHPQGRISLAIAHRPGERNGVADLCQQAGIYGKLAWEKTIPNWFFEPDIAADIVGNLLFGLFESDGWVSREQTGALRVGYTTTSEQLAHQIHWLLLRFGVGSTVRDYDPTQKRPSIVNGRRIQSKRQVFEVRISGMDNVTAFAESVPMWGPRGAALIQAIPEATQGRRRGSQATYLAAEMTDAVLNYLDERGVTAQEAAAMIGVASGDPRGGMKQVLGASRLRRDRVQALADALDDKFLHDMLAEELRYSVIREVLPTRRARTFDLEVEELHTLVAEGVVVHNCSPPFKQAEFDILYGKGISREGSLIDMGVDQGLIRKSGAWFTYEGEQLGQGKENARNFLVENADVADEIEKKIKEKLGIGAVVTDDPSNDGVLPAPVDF

Cytochrome P450 2C9, sequence (P11712 whole entry): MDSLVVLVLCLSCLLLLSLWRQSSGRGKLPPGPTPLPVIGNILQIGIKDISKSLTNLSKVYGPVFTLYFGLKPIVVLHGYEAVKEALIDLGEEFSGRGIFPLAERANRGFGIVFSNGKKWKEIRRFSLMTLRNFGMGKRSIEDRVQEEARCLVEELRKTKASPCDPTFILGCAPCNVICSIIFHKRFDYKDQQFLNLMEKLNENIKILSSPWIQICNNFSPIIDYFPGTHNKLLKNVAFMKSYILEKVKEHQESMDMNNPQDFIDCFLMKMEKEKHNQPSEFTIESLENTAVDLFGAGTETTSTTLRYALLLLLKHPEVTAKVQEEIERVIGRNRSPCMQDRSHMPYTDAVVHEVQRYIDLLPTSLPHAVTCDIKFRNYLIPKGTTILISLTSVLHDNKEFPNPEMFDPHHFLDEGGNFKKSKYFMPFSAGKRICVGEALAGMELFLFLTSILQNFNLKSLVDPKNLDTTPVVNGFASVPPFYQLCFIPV
Cytochrome P450 3A4, sequence (P08684 whole entry): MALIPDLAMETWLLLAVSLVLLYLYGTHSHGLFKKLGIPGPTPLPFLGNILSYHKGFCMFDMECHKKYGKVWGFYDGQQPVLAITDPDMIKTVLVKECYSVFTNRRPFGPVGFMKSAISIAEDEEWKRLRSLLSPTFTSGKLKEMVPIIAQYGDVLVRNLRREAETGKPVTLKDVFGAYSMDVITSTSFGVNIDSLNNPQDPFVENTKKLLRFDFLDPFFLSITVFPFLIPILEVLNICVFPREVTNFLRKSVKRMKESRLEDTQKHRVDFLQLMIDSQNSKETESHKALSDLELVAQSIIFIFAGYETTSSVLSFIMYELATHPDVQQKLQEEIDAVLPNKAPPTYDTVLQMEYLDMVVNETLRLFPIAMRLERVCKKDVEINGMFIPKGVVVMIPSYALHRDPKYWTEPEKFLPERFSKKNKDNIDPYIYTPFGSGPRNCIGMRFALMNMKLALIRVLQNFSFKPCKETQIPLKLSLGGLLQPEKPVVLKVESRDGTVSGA
Cytochrome P450 2C19, sequence (P33261 whole entry): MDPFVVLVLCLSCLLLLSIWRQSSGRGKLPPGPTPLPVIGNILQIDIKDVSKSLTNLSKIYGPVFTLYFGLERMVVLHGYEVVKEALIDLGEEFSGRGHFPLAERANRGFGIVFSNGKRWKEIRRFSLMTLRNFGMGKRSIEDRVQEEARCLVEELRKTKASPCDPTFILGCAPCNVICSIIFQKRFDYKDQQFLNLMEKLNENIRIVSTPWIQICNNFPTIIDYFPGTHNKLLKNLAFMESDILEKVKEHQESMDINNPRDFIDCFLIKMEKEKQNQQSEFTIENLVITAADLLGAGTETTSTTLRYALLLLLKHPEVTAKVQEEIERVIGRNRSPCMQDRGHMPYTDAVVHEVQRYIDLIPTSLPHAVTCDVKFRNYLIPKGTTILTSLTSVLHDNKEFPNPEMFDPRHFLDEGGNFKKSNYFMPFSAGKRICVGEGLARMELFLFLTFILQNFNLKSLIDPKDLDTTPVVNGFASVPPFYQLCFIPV

With Cc1ccc(O)c(C(=O)c2cc(C(=O)NCCc3ccccc3)c(=O)n(CCc3ccccc3)c2)c1 the EC50 [1] was 2.02 µM (active) and the EC50 [2] was > 30 µM (not active).
With O=C(COC(=O)c1c2ccccc2cc2ccccc12)NCC(F)(F)F the CC50 [3] was 23.6 µM (active).
With CCN(C(=O)CSc1nnc(Cn2nnc3ccccc32)o1)c1nc(-c2ccccc2)cs1 the CC50 [3] was 26.4 µM (active).
For O=C(CN1CCN(c2nc(-c3ccccc3)cs2)CC1)NCc1ccc2c(c1)OCO2, the CC50 [3] was 11 µM (active).
For O=C(O)[C@H](Cc1cc(I)c(O)c(I)c1)C1CCCCC1, the AC50 [4] was 3.16 µM (inconclusive) and the AC50 ([5]; read-out: AC50) was 2 µM (inconclusive).
For CCC(C#CCN1CCCCC1)(CC)OCCC#N, the AC50 [4] was 0.355 µM (inconclusive).
For COc1ccc2c(c1OC)C(=O)OC2Nc1ncccc1C (stereo not given), the AC50 ([5]; read-out: AC50) was 39.8 µM (inconclusive).
For CCOC(=O)c1cnc2cc(-c3ccc(C(C)(C)C)cc3)nn2c1N, the AC50 [4] was 3.16 µM (inconclusive).
In the case of COc1ccc(CSCCN=C(S)Nc2ccccc2)cc1Cl, the EC50 [6] was 18.5 µM (active) and the EC50 [7] was > 150 µM (not active).
In the case of COc1ccc(C(=O)CC(=O)C(=O)Nc2ccccc2C(F)(F)F)cc1, the EC50 [6] was 3.52 µM (active) and the EC50 [7] was 8.59 µM (active).
For CS(=O)(=O)N1CCN(c2ccc([N+](=O)[O-])c(NCc3ccccc3)c2)CC1, the AC50 ([5]; read-out: AC50) was 31.6 µM (inconclusive) and the AC50 [8] was 31.6 µM (inconclusive).
In the case of Cc1ccc2nc(NC(=O)COC(=O)CSc3nc(C)cc(C)n3)sc2c1, the AC50 ([5]; read-out: AC50) was 5.01 µM (inconclusive).
With Cc1ccc(-n2cnc3cc(NCc4cccs4)ccc32)cc1 the CC50 [3] was 25.3 µM (active).
In the case of COc1ccc(NC(=O)CSc2nc(-c3ccc(C)cc3)cc(C(F)(F)F)c2C#N)cc1, the AC50 ([5]; read-out: AC50) was 20 µM (inconclusive).
With COc1cc(/C=C/CN2CCC(CO)(CC3CCCCO3)CC2)ccc1O (stereo not given) the IC50 [9] was 91.2 µM (active).
With C=CCOC(=O)C1=C(C)NC(=O)NC1c1ccc(OC(=O)c2ccco2)c(OC)c1 (stereo not given) the EC50 [10] was 18 µM (active).
For CCCC(=O)Nc1nc(C(=O)OCC)cs1, the AC50 ([5]; read-out: AC50) was 39.8 µM (inconclusive).
For CCc1cccc(Nc2c([N+](=O)[O-])nn(-c3ccc4c(c3)OCCO4)[n+]2[O-])c1, the EC50 [1] was 0.272 µM (active) and the EC50 [2] was > 60 µM (inconclusive).
In the case of O=C(CN1CCN(C(c2ccccc2)c2ccccc2)CC1)N1CCN(c2ccccc2)CC1, the CC50 [3] was 23.9 µM (active).
In the case of COc1ccc(NC2CCCN(C(=O)c3oc(C)cc3C)C2)cc1OC (stereo not given), the IC50 [9] was 159 µM (active).
For Cc1cc(C)c2c(CN3CCN(Cc4ccc5c(c4)OCO5)CC3)cc(=O)oc2c1, the CC50 [3] was 16.8 µM (active).
With COc1ncc2nc(CCc3ccccc3)c(=O)n(C3CC3)c2n1 the AC50 [8] was 31.6 µM (inconclusive).
In the case of O=C(NC(Nc1cc(C(F)(F)F)ccc1Cl)C(=O)c1ccccc1)c1ccccc1 (stereo not given), the EC50 [1] was 2.17 µM (active) and the EC50 [2] was > 30 µM (not active).
For CCCc1nc2c(c(=O)c3ccccc3n2C)c(=O)n1-c1cc(C)cc(C)c1, the CC50 [3] was > 50 µM (active).
With COC(=O)C(O)(c1c(C)[nH]c2ccccc12)C(F)(F)F (stereo not given) the AC50 [4] was 3.16 µM (inconclusive) and the AC50 [8] was 22.4 µM (inconclusive).
In the case of COc1ccc(N(C(=O)Cn2nnc3ccccc32)C2(C(=O)NC3CCCC3)CCCCC2)cc1, the AC50 [4] was 22.4 µM (inconclusive) and the AC50 ([5]; read-out: AC50) was 14.1 µM (inconclusive).
In the case of COCCNc1nc(-c2ccc(C(=O)N(C)C)cc2)nc2ccccc12, the AC50 [8] was 15.8 µM (inconclusive).
For Cc1nnc(SCC2=C(C(=O)O)N3C(=O)C(NC(=O)C(C)n4nc(C(F)(F)F)cc4C)C3SC2)s1 (stereo not given), the EC50 [6] was 0.201 µM (active) and the EC50 [7] was 0.421 µM (active).
In the case of Cc1nc2cnc(Oc3cccc(Cl)c3)nc2n(CCC#N)c1=O, the AC50 [4] was 39.8 µM (inconclusive).
In the case of Cc1ccc(CN2CCN(CC(=O)N=Nc3c(O)[nH]c4ccccc34)CC2)cc1, the EC50 [1] was 1.08 µM (active) and the EC50 [2] was > 60 µM (not active).
In the case of Cc1ccc(-c2csc(NCCc3nc4cc(Cl)c(Cl)cc4n3CCCO)n2)cc1, the CC50 [3] was 28.9 µM (active).
For COCC(C)n1c(C)cc(C(=O)COC(=O)c2c(C)nn(-c3ccccc3)c2C)c1C (stereo not given), the CC50 [3] was 29.2 µM (active).
In the case of Cc1nn2cc(-c3ccc(N)cc3)nc2s1, the IC50 [9] was 110 µM (active).
In the case of COc1ccc(C(=O)CN2C(=O)NC(C)(c3ccccc3)C2=O)cc1OC (stereo not given), the AC50 ([5]; read-out: AC50) was 39.8 µM (inconclusive) and the AC50 [8] was 4.47 µM (inconclusive).
For Nc1ncnc2c1ncn2[C@@H]1O[C@@H](C(=O)NC2CC2)[C@H](O)[C@@H]1O, the AC50 [8] was 1 µM (inconclusive).
With C/C(CCN1CCc2nc(-c3ccccc3)c(-c3ccccc3)cc2C1)=N\OC[C@@H](O)[C@@H]1O[C@@H]2OC(C)(C)O[C@@H]2[C@H]1O the AC50 [8] was 3.98 µM (inconclusive).
In the case of CNc1nc(-c2ccc3c(c2)CCN3C(=O)c2ccccc2C)cs1, the CC50 [3] was 14.9 µM (active).
In the case of Cn1c(O)c(C(c2ccccn2)c2c(O)n(C)c(=S)n(C)c2=O)c(=O)n(C)c1=S, the AC50 [4] was 1.58 µM (inconclusive).
For O=C(COc1ccccc1)Nc1ccc2[nH]c(O)nc2c1, the CC50 [3] was 26 µM (active).
In the case of COc1ccc(NC(S)=NC(=NCS(=O)(=O)c2ccccc2)c2ccccc2)cc1, the CC50 [3] was 24.6 µM (active).
With N=C(N)CCNC(=O)[C@@H]1CCC(N)=N1.O=S(=O)(O)O the AC50 [5] was “inconclusive”.
With O=C1[C@H]2[C@@H](c3ccc(F)cc3)N3C(=O)N(c4ccc(C(F)(F)F)cc4)C(=O)[C@@]3(Cc3ccccc3)[C@H]2C(=O)N1C1CCCCC1 the CC50 [3] was > 50 µM (active).
With O=C(NCc1ccco1)c1nc(O)c2nnn(Cc3cccc(Cl)c3)c2n1 the AC50 [4] was 15.8 µM (inconclusive).
With COc1ccccc1N1CCN(CC(=O)NCC2CCCO2)CC1 (stereo not given) the IC50 [9] was 51.9 µM (active).
In the case of Cc1[nH]nc(-c2ccc(OCc3cnn(-c4ccccc4)c3)cc2O)c1Oc1ccccc1F, the AC50 [8] was 8.91 µM (inconclusive).
For Oc1ccc(Br)cc1Cn1nnc2ccccc21, the CC50 [3] was 30 µM (active).
With COc1cc(CN2CCN(Cc3ccc(C(F)(F)F)cc3)CC2)cc(OC)c1OC the IC50 [9] was 122 µM (active).
With O=C(NC1CCCC1)c1ccc([N+](=O)[O-])s1 the EC50 [1] was 0.546 µM (active) and the EC50 [2] was 5.25 µM (active).
With COc1ccc(CCNCc2ccccc2)cc1 the IC50 [9] was 134 µM (active).
With COCCn1c(=O)c(-c2cccs2)nc2cnc(OC)nc21 the AC50 [4] was 39.8 µM (inconclusive) and the AC50 ([5]; read-out: AC50) was 20 µM (inconclusive).
For COc1cccc([C@@H]2Oc3ccc(OC)cc3/C(=N/O[C@@H](C)CN3CCCc4nc(C)c(C)cc43)[C@@H]2O)c1, the AC50 [4] was 2 µM (inconclusive) and the AC50 ([5]; read-out: AC50) was 0.251 µM (inconclusive).
For COc1ccc(NC(=O)c2nc[nH]n2)cc1, the AC50 [4] was 0.708 µM (inconclusive) and the AC50 ([5]; read-out: AC50) was 31.6 µM (inconclusive).
In the case of OC1CNc2c(ccc3ccccc23)C1 (stereo not given), the IC50 [9] was 18.4 µM (active).
In the case of COc1ccccc1CNC(=O)C[C@@H]1C[C@H]2c3cc(N(C)C)ccc3O[C@H]2[C@H](CO)O1, the IC50 [9] was 153 µM (active).
In the case of COc1cc(/C=N/N=C2/SCC(=O)N2c2ccc(O)cc2)ccc1O, the IC50 [9] was 65 µM (active).
For C/C(CC(=O)NC1CCCC1)=N\NC(=O)Cc1cccs1, the AC50 [8] was 12.6 µM (inconclusive).
In the case of CCN1CCN(c2ccc(/N=C/c3ccc(O)cc3O)cc2)CC1, the IC50 [9] was 28 µM (active).
In the case of O=C(CCC(=O)Nc1ccc(F)cc1)N/N=C/c1ccc(O)cc1, the IC50 [9] was 62.8 µM (active).
With Cc1ccc(S(=O)(=O)Nc2ccc(NC(=O)CN3CCCCC3)c(Cl)c2)cc1 the CC50 [3] was 24.8 µM (active).
